According to publication PMC12040169 (PLOS Biology, 2025):

Experiment: in vitro
Details: human, hela cells, % viability

Going from `CCCCOC(=O)c1ccccc1NC(=O)NCCc1cccs1` [CBK043573] to `COC(=O)c1ccc(Cn2cc(NC(=O)NCCc3cccs3)cn2)o1` [CBK043825], the viability at 28.5 h, 10 µM falls from 93.5% to 82.4%.

Going from `CCOc1ccccc1CCNS(=O)(=O)c1ccc(Cl)c(Cl)c1` [CBK043610] to `CCCCNS(=O)(=O)c1ccc(Cl)c(Cl)c1` [CBK044309], the viability at 28.5 h, 10 µM rises from 95.5% to 96.5%.

First: CC(C)c1ccc(S(=O)(=O)NCCC(C)(C)C)cc1 [CBK043640]
Second: CCC(COC)NS(=O)(=O)c1ccc(C(C)C)cc1 (stereo not drawn) [CBK044587]
The viability at 28.5 h, 10 µM of the first is lower: 95.4% for the first, 108% for the second.

First: Cc1cc(S(=O)(=O)Nc2cccc(Br)c2)c(C)cc1Cl [CBK043652]
Second: Cc1ccc(C#N)c(NS(=O)(=O)c2cc(C)c(Cl)cc2C)c1 [CBK045250]
The viability at 28.5 h, 10 µM of the first is lower: 80.8% for the first, 96.6% for the second.

First: Cc1cc(S(=O)(=O)NCCC#N)c(C)cc1Cl [CBK043680]
Second: Cc1cc(S(=O)(=O)NCc2cc(F)c(F)c(F)c2)c(C)cc1Cl [CBK043813]
The viability at 28.5 h, 10 µM of the first is higher: 113% for the first, 85% for the second.

Compared with `O=S(=O)(Nc1cnc2ccccc2c1)c1cccs1` [CBK043694], `O=S(=O)(Nc1ccccn1)c1cccs1` [CBK043773] is higher in viability at 28.5 h, 10 µM: 83% for the first, 94.7% for the second.

First: O=C1OCc2ccc(NS(=O)(=O)c3ccc(OC(F)(F)F)cc3)cc21 [CBK043715]
Second: O=S(=O)(Nc1cccc(O)c1)c1ccc(OC(F)(F)F)cc1 [CBK043822]
The viability at 28.5 h, 10 µM of the first is lower: 82.8% for the first, 108% for the second.

Going from `O=C(NCCc1cccs1)Nc1cc(C(F)(F)F)cc(C(F)(F)F)c1` [CBK043718] to `O=C(NCCc1cccs1)Nc1ccc(F)c(F)c1` [CBK043951], the viability at 28.5 h, 10 µM falls from 91.1% to 87%.

Compared with `O=C(NCCC1=CCCCC1)Nc1ccc(SC(F)(F)F)cc1` [CBK043725], `CCCCOc1ccc(NC(=O)NCCC2=CCCCC2)cc1` [CBK043751] is higher in viability at 28.5 h, 10 µM: 85.7% for the first, 92.1% for the second.

Compared with `Cc1ccc(S(=O)(=O)N2CCC3(CC2)OCCO3)cc1Cl` [CBK043731], `O=S(=O)(c1cnc(Cl)c(Br)c1)N1CCC2(CC1)OCCO2` [CBK044070] is higher in viability at 28.5 h, 10 µM: 97.1% for the first, 97.5% for the second.

Going from `CCOC(=O)CN1CCN(S(=O)(=O)c2ccc3ccccc3c2)CC1` [CBK043738] to `O=S(=O)(c1cc(Cl)ccc1Cl)N1CCCN(Cc2ccccc2)CC1` [CBK044491], the viability at 28.5 h, 10 µM rises from 93.4% to 104%.

First: O=C(NCCc1cccs1)Nc1cc(Cl)nc(Cl)c1 [CBK043762]
Second: O=C(NCCc1cccs1)Nc1cc(F)ccc1F [CBK043935]
The viability at 28.5 h, 10 µM of the first is lower: 87.2% for the first, 113% for the second.

Compared with `CCCCNC(=O)N1CCN(c2ccccc2Cl)CC1` [CBK043777], `CCCCCNC(=O)N1CCN(CC(=O)OCC)CC1` [CBK044786] is lower in viability at 28.5 h, 10 µM: 106% for the first, 96.6% for the second.

Going from `CCCCCNC(=O)NCCC1=CCCCC1` [CBK043796] to `N#CCCCCn1cc(NC(=O)NCCc2cccs2)cn1` [CBK044855], the viability at 28.5 h, 10 µM rises from 96.9% to 100%.

First: N#Cc1cccc(Cn2cc(NC(=O)NCCc3cccs3)cn2)c1 [CBK043824]
Second: Cc1cccc(C(C)(C)C)c1NC(=O)NCCc1cccs1 [CBK044530]
The viability at 28.5 h, 10 µM of the first is lower: 94.9% for the first, 98.9% for the second.

Going from `CC(C)c1ccc(S(=O)(=O)Nc2cccnc2)cc1` [CBK043884] to `CC(C)c1ccc(S(=O)(=O)Nc2ccon2)cc1` [CBK044584], the viability at 28.5 h, 10 µM rises from 97.9% to 115%.

Compared with `COc1ccc(NS(=O)(=O)c2cccs2)c(OC)c1` [CBK043915], `Cc1cc(Cl)ccc1CNS(=O)(=O)c1cccs1` [CBK044714] is higher in viability at 28.5 h, 10 µM: 93% for the first, 97% for the second.

Going from `CCC(C)(C)c1ccc(S(=O)(=O)N(CCC#N)Cc2cccnc2)cc1` [CBK043960] to `CCCCN(C)S(=O)(=O)c1ccc(C(C)(C)CC)cc1` [CBK044836], the viability at 28.5 h, 10 µM rises from 89.6% to 89.9%.

Going from `Cc1cc(S(=O)(=O)Nc2cc(C3CC3)nn2C)c(C)cc1Cl` [CBK043994] to `CC(=O)N(C)c1ccc(NS(=O)(=O)c2cc(C)c(Cl)cc2C)cc1` [CBK045298], the viability at 28.5 h, 10 µM falls from 111% to 94.3%.

First: CCOC(=O)C(NS(=O)(=O)c1ccc(NC(C)=O)c(Cl)c1)C(=O)OCC [CBK043996]
Second: COC(=O)CNC(=O)CNS(=O)(=O)c1ccc(C(C)=O)cc1 [CBK044117]
The viability at 28.5 h, 10 µM of the first is higher: 96.2% for the first, 89.1% for the second.

First: O=S(=O)(NCC1CCCO1)c1cccs1 (stereo not drawn) [CBK044263]
Second: Cc1noc(C)c1Cn1cc(NS(=O)(=O)c2cccs2)cn1 [CBK044394]
The viability at 28.5 h, 10 µM of the first is higher: 103% for the first, 97.9% for the second.

Going from `COC[C@@H]1CCCN1S(=O)(=O)c1ccc(Cl)c(Cl)c1` [CBK044313] to `COC[C@@H]1CCCN1S(=O)(=O)c1ccc(OC(F)(F)F)cc1` [CBK044338], the viability at 28.5 h, 10 µM rises from 91.3% to 92.4%.

Compared with `CC(=O)c1ccc(S(=O)(=O)NCc2ccc(C(F)(F)F)cc2)cc1` [CBK044314], `CC(=O)c1ccc(S(=O)(=O)NCC2CC2)cc1` [CBK044440] is lower in viability at 28.5 h, 10 µM: 108% for the first, 100% for the second.

Going from `O=S(=O)(Nc1cccc(Br)c1)c1ccc(OC(F)(F)F)cc1` [CBK044369] to `O=S(=O)(Nc1ccc2ncccc2c1)c1ccc(OC(F)(F)F)cc1` [CBK045339], the viability at 28.5 h, 10 µM falls from 114% to 99.7%.

First: CC1(C)COC(=O)N1C1CCN(C(=O)c2ccno2)CC1 [CBK044383]
Second: CC1(C)COC(=O)N1C1CCN(C(=O)CNC(=O)c2cccs2)CC1 [CBK044501]
The viability at 28.5 h, 10 µM of the first is higher: 95.7% for the first, 93.1% for the second.

Compared with `CCc1cc(Br)ccc1S(=O)(=O)NC1CCOC1=O` (stereo not drawn) [CBK044385], `CCc1cc(Br)ccc1S(=O)(=O)Nc1ccnn1CC` [CBK044900] is lower in viability at 28.5 h, 10 µM: 97.5% for the first, 92.7% for the second.

Going from `CC(C)c1ccc(S(=O)(=O)N2CCN(c3ccc(C#N)cc3)CC2)cc1` [CBK044404] to `CC(C)c1ccc(S(=O)(=O)NCCc2ccccc2)cc1` [CBK044426], the viability at 28.5 h, 10 µM falls from 97.3% to 94.1%.

First: N#CCCN(CC1CCCO1)S(=O)(=O)c1ccc(OC(F)(F)F)cc1 (stereo not drawn) [CBK044405]
Second: CN(CCC#N)S(=O)(=O)c1ccc(OC(F)(F)F)cc1 [CBK044415]
The viability at 28.5 h, 10 µM of the first is higher: 91.5% for the first, 88.1% for the second.

First: O=S(=O)(c1ccc(C(F)(F)F)cc1)N1CCC2(CC1)OCCO2 [CBK044520]
Second: O=S(=O)(c1cccc(F)c1)N1CCC(Cc2ccccc2)CC1 [CBK044828]
The viability at 28.5 h, 10 µM of the first is lower: 91.1% for the first, 102% for the second.

First: COC(=O)[C@H](CC1CCCCC1)NS(=O)(=O)c1ccc(C(C)C)cc1 [CBK044551]
Second: Cc1cc(NS(=O)(=O)c2ccc(C(C)C)cc2)n[nH]1 [CBK044646]
The viability at 28.5 h, 10 µM of the first is lower: 96.3% for the first, 106% for the second.

Compared with `CC(C)c1ccc(S(=O)(=O)Nc2cccc(SC(F)(F)F)c2)cc1` [CBK044581], `CC(C)c1ccc(S(=O)(=O)NCc2ccc(F)c(F)c2F)cc1` [CBK044717] is higher in viability at 28.5 h, 10 µM: 99.5% for the first, 102% for the second.

Going from `Cc1cnc(CNS(=O)(=O)c2ccc(C(C)C)cc2)cn1` [CBK044615] to `CC(C)c1ccc(S(=O)(=O)NCc2csc3ccccc23)cc1` [CBK044662], the viability at 28.5 h, 10 µM falls from 118% to 96.6%.

Going from `O=S(=O)(Nc1cccc(Cl)c1)c1ccc(Cl)c(Cl)c1` [CBK044636] to `CCN(C)S(=O)(=O)c1ccc(Cl)c(Cl)c1` [CBK045392], the viability at 28.5 h, 10 µM rises from 79.3% to 113%.

Compared with `CCOCCNS(=O)(=O)c1ccc(C(C)(C)CC)cc1` [CBK044655], `CCCOCCCNS(=O)(=O)c1ccc(C(C)(C)CC)cc1` [CBK044821] is higher in viability at 28.5 h, 10 µM: 98.2% for the first, 106% for the second.

First: CCc1cc(Br)ccc1S(=O)(=O)NCCCC(=O)OC [CBK044788]
Second: CCc1cc(Br)ccc1S(=O)(=O)NCCOc1ccccc1 [CBK044882]
The viability at 28.5 h, 10 µM of the first is lower: 88.2% for the first, 88.4% for the second.

Compared with `CCOC(=O)C1CCCN(S(=O)(=O)c2cc(C)c(Cl)cc2C)C1` (stereo not drawn) [CBK044846], `CCOC(=O)N1CCC(NS(=O)(=O)c2c(C)noc2C)CC1` [CBK045465] is lower in viability at 28.5 h, 10 µM: 108% for the first, 102% for the second.

First: CCOC(=O)CC(C)NS(=O)(=O)c1ccc(OC(F)(F)F)cc1 (stereo not drawn) [CBK044954]
Second: CCN(CCc1ccccn1)S(=O)(=O)c1ccc(OC(F)(F)F)cc1 [CBK044968]
The viability at 28.5 h, 10 µM of the first is higher: 104% for the first, 92.4% for the second.

First: CCC(C)(C)c1ccc(S(=O)(=O)NCC2CC2)cc1 [CBK044994]
Second: CCN(CC)C(=O)c1ccccc1NS(=O)(=O)c1ccc(C)cc1 [CBK045416]
The viability at 28.5 h, 10 µM of the first is higher: 93% for the first, 88.7% for the second.

First: CCc1cc(Br)ccc1S(=O)(=O)Nc1cccc2cccnc12 [CBK045012]
Second: CCOC(=O)N1CCC(NS(=O)(=O)c2cccc3cccnc23)CC1 [CBK045453]
The viability at 28.5 h, 10 µM of the first is lower: 87.8% for the first, 90.6% for the second.

First: CC1(C)COC(=O)N1C1CCN(C(=O)CCS/C=C\c2ccccc2)CC1 [CBK045134]
Second: CCOC(=O)N1CCC(NS(=O)(=O)/C=C/c2ccccc2)CC1 [CBK045458]
The viability at 28.5 h, 10 µM of the first is lower: 95.3% for the first, 107% for the second.

Going from `CN(CCC#N)S(=O)(=O)c1ccc(Cl)c(Cl)c1` [CBK045396] to `CCc1nnc(NS(=O)(=O)c2ccc(NC(=O)c3ccc(Cl)cc3Cl)cc2)s1` [CBK045493], the viability at 28.5 h, 10 µM falls from 91.8% to 88.5%.

First: O=C(Nc1ccc(F)cc1)c1ccccc1NS(=O)(=O)c1cc(Br)c(Cl)s1 [CBK045405]
Second: O=C(Nc1ccc(F)cc1)c1ccccc1NS(=O)(=O)c1ccc(Br)cc1 [CBK045438]
The viability at 28.5 h, 10 µM of the first is lower: 92.8% for the first, 100% for the second.

First: CCN(CC)C(=O)c1ccccc1NS(=O)(=O)c1ccc(F)cc1 [CBK045414]
Second: CCN(CC)C(=O)c1ccccc1NS(=O)(=O)c1ccc(OC)c(OC)c1 [CBK045423]
The viability at 28.5 h, 10 µM of the first is lower: 87.7% for the first, 92.6% for the second.

Going from `CCN(CC)C(=O)c1ccccc1NS(=O)(=O)c1cc(Br)c(Cl)s1` [CBK045424] to `CCOC(=O)c1ccccc1NS(=O)(=O)c1cc(Cl)sc1Cl` [CBK045448], the viability at 28.5 h, 10 µM falls from 91.3% to 85.8%.

First: CCN(CC)C(=O)c1ccccc1NS(=O)(=O)Cc1ccccc1[N+](=O)[O-] [CBK045428]
Second: CCOC(=O)c1ccccc1NS(=O)(=O)c1ccc(C)c([N+](=O)[O-])c1 [CBK045451]
The viability at 28.5 h, 10 µM of the first is higher: 99.9% for the first, 88.7% for the second.

Compared with `CCOC(=O)N1CCC(NS(=O)(=O)c2cc(Br)c(Cl)s2)CC1` [CBK045472], `CCc1nnc(NS(=O)(=O)c2ccc(NC(=O)c3ccc([N+](=O)[O-])cc3)cc2)s1` [CBK045483] is lower in viability at 28.5 h, 10 µM: 95.8% for the first, 95.4% for the second.

Same assay, conditions: human, hela cells, % viability, bulk resorufin, single well

In the case of `O=C(Nc1ccccc1Br)N1CCC2(CC1)OCCO2` [CBK043644], the viability at 28.5 h, 10 µM is reported as 90.7%.
